Measured values: BigSolDB 2.1

CC(=O)c1cnccn1
solubility (mole fraction)
Conditions	268.35 K	273.15 K	278.15 K	283.21 K	288.15 K	293.05 K	298.15 K	303.15 K	308.35 K
in DMF	0.0822	0.0972	0.116	0.139	0.165	0.194	0.23	0.269	0.314
in NMP	0.117	0.129	0.15	0.174	0.203	0.234	0.271	0.31	0.355
in acetone	0.0511	0.0601	0.0727	0.0826	0.0977	0.119	0.137	0.153	0.174
in ethanol	0.0073	0.0111	0.0136	0.0178	0.0231	0.0347	0.0433	0.0542	0.0727
in ethyl acetate	0.0636	0.0746	0.0889	0.101	0.116	0.144	0.164	0.186	0.209
in isopropanol	0.0052	0.0075	0.0106	0.0128	0.0195	0.0299	0.0382	0.0509	0.0698
in methanol	0.013	0.0156	0.0179	0.0224	0.0281	0.0405	0.0485	0.0596	0.077
